Results reported in patent US12344610B2, “APOL1 inhibitors and methods of use” (Maze Therapeutics, Inc., priority 2022, dated 2025).
pEC50: −log10 of the molar value. Where two headings read alike, the source gives them in different places.

What was measured:
Format in all cases: cell-based
Settings in all cases: geometric mean of at least 2 assay runs, † = single assay run
[1] = test system: Trypanosoma brucei Lister 427 VSG221 with APOL1 G2 recombinant protein; test: APOL1 G2 trypanosome cell rescue assay (Example B5)
How it was run: (§1)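 Recombinant APOL1 protein, dispensed from a 2 μg/mL stock, and 250 T. brucei per well were co-incubated with test compound (0.4% DMSO) for 20 h. Viability: CellTiter-Glo luminescence.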

[2] = test system: HEK293 cells overexpressing APOL1 G2; test: APOL1 G2 HEK293 cell rescue assay (reversal of cell death caused by overexpression of APOL1)
How it was run: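 Each compound tested in duplicate wells on one plate per run, with values usually the geometric mean across at least two runs on different days, occasionally from one run only. Read-out: concentration giving half-maximal rescue of APOL1 G2 overexpression-induced death of HEK293 cells.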

[3] = test system: Trypanosoma brucei Lister 427 VSG221 with APOL1 G0 recombinant protein; test: APOL1 G0 trypanosome cell rescue assay (Example B5)
How it was run: as §1

[4] = test system: Trypanosoma brucei Lister 427 VSG221 with APOL1 G1 recombinant protein; test: APOL1 G1 trypanosome cell rescue assay (Example B5)
How it was run: as §1

[5] = Trypanosoma brucei, 20 h, read-out: APOL1 G2 Trypanosome Rescue EC50, Trypanosoma brucei Lister 427 VSG221 with APOL1 G2 recombinant protein, 20 hours, CellTiter-Glo
[6] = Homo sapiens, HEK293, HEK293 overexpressing APOL1 G2
[7] = Trypanosoma brucei, 20 h, read-out: APOL1 G0 Trypanosome Rescue EC50, Trypanosoma brucei Lister 427 VSG221 with APOL1 G0 recombinant protein, 20 hours, CellTiter-Glo
[8] = Trypanosoma brucei, 20 h, read-out: APOL1 G1 Trypanosome Rescue EC50, Trypanosoma brucei Lister 427 VSG221 with APOL1 G1 recombinant protein, 20 hours, CellTiter-Glo
[9] = read-out: APOL1 G2 Trypanosome Rescue EC50, Trypanosoma brucei Lister 427 VSG221 with APOL1 G2 recombinant protein, 20 hours, CellTiter-Glo
[10] = read-out: APOL1 G1 Trypanosome Rescue EC50, Trypanosoma brucei Lister 427 VSG221 with APOL1 G1 recombinant protein, 20 hours, CellTiter-Glo

SMILES	pEC50 [1, 5]	pEC50 [2, 6]	pEC50 [3, 7]	pEC50 [4, 8]	pEC50 [1, 9]	pEC50 ([2]; HEK293 overexpressing APOL1 G2)	pEC50 [4, 10]	pEC50 ([3]; read-out: APOL1 G0 Trypanosome Rescue EC50, Trypanosoma brucei Lister 427 VSG221 with APOL1 G0 recombinant protein, 20 hours, CellTiter-Glo)
C[C@]1(O)C[C@@H](N2C(=O)OCc3cc(OCCN4CCC5(CC4)C(=O)Nc4ccc(Cl)cc45)cnc32)C1 [Compound 289, 5-chloro-1′-[2-({2-oxo-1-[(cis)-3-hydroxy-3-methylcyclobutyl]-1H,2H,4H-pyrido[2,3-d][1,3]oxazin-6-yl]oxy)ethyl]-1,2-dihydrospiro[indole-3,4′-piperidin]-2-one]	7.80	7.78	7.42	7.28	–	–	–	–
O=C(c1c(F)cc(OCCN2CCC3(CC2)C(=O)Nc2ccc(Cl)cc23)cc1F)N1CCS(=O)(=O)CC1 [Compound 259, 4-[4-(2-{5-chloro-2-oxo-1,2-dihydrospiro[indole-3,4′-piperidin]-1′-yl}ethoxy)-2,6-difluorobenzoyl]-1λ^6-thiomorpholine-1,1-dione]	7.59	7.43	7.17	7.04	–	–	–	–
CC1(O)CN(c2ncc(OCCN3CCC4(CC3)C(=O)Nc3ccc(Cl)cc34)cn2)C1 [Compound 300, 5-chloro-1′-(2-{[2-(3-hydroxy-3-methylazetidin-1-yl)pyrimidin-5-yl]oxy}ethyl)-1,2-dihydrospiro[indole-3,4′-piperidin]-2-one]	6.80	7.00	6.43	6.27	–	–	–	–
CS(=O)(=O)c1ccc(OCCN2CCC3(CC2)C(=O)N(CCO)c2ccc(Cl)cc23)cc1C(F)F [Compound 265, 5-chloro-1′-{2-[3-(difluoromethyl)-4-methanesulfonylphenoxy]ethyl}-1-(2-hydroxyethyl)-1,2-dihydrospiro[indole-3,4′-piperidin]-2-one]	7.64	7.52	7.17	6.98	–	–	–	–
O=C(c1ccc(OCCN2CCC3(CC2)C(=O)Nc2ccc(Cl)cc23)cc1F)N1CCOCC1 [Compound 231, 5-chloro-1′-{2-[3-fluoro-4-(morpholine-4-carbonyl)phenoxy]ethyl}-1,2-dihydrospiro[indole-3,4′-piperidin]-2-one]	7.18	7.38	6.87	6.64	–	–	–	–
CC[C@]1(O)C[C@H](N2C(=O)CCc3cc(OCCN4CCC5(CC4)C(=O)Nc4ccc(Cl)cc45)cnc32)C1 (single isomer, unassigned) [Compound 290, 5-chloro-1′-[2-({7-oxo-8-[(trans)-3-ethyl-3-hydroxycyclobutyl]-5,6,7,8-tetrahydro-1,8-naphthyridin-3-yl}oxy)ethyl]-1,2-dihydrospiro[indole-3,4′-piperidin]-2-one]	7.62	7.74	7.26	7.16	–	–	–	–
COCCN1C(=O)C2(CCN(CCOc3ccc(S(C)(=O)=O)cc3)CC2)c2cc(C#N)ccc21 [Compound 25, 1′-[2-(4-methanesulfonylphenoxy)ethyl]-1-(2-methoxyethyl)-2-oxo-1,2-dihydrospiro[indole-3,4′-piperidine]-5-carbonitrile]	5.91	5.88	< 5.40	< 5.40	–	–	–	–
O=C1Nc2ccc(Cl)cc2C12CCN(CCOc1ccc(S(=O)(=O)CCO)cc1)CC2 [Compound 198, 5-chloro-1′-{2-[4-(2-hydroxyethanesulfonyl)phenoxy)ethyl}-1,2-dihydrospiro[indole-3,4′-piperidin]-2-one]	7.38	7.20	6.97	6.85	–	–	–	–
O=C1Nc2ccc(Cl)cc2C12CCN(CCOc1ccc(S(=O)(=O)[C@H]3C[C@H](O)C3)cc1)CC2 [Compound 215, 5-chloro-1′-[2-(4-{[(trans)-3-hydroxycyclobutyl]sulfonyl}phenoxy)ethyl]-1,2-dihydrospiro[indole-3,4′-piperidin]-2-one]	7.65	7.10	7.15	7.01	–	–	–	–
CS(=O)(=O)C1(c2ccc(OCCN3CCC4(CC3)C(=O)Nc3ccc(Cl)cc34)cc2)COC1 [Compound 195, 5-chloro-1′-{2-[4-(3-methanesulfonyloxetan-3-yl)phenoxy]ethyl}-1,2-dihydrospiro[indole-3,4′-piperidin]-2-one]	7.70	7.40	7.32	7.13	–	–	–	–
CS(=O)(=O)C1(c2ccc(OCCN3CCC4(CC3)C(=O)Nc3ccc(C(F)F)cc34)cc2)CC(O)C1 (single isomer, unassigned) [Compound 281, 5-(difluoromethyl)-1′-(2-{4-[(cis) or (trans)-3-hydroxy-1-methanesulfonylcyclobutyl]phenoxy}ethyl)-1,2-dihydrospiro[indole-3,4′-piperidin]-2-one]	–	–	7.02	–	7.55	7.25	7.00	–
O=C(c1ccc(OCCN2CCC3(CC2)C(=O)Nc2ccc(Cl)cc23)cc1F)N1CC2(C1)CS(=O)(=O)C2 [Compound 239, 6-[4-(2-{5-chloro-2-oxo-1,2-dihydrospiro[indole-3,4′-piperidin]-1′-yl}ethoxy)-2-fluorobenzoyl]-2λ^6-thia-6-azaspiro[3.3]heptane-2,2-dione]	7.83	7.11	7.40	7.31	–	–	–	–
C[C@]1(O)C[C@@H](N2C(=O)CCc3cc(OCCN4CCC5(CC4)C(=O)Nc4ccc(Cl)cc45)cnc32)C1 [Compound 275, 5-chloro-1′-[2-({7-oxo-8-[(cis)-3-hydroxy-3-methylcyclobutyl]-5,6,7,8-tetrahydro-1,8-naphthyridin-3-yl}oxy)ethyl]-1,2-dihydrospiro[indole-3,4′-piperidin]-2-one]	7.67	7.57	7.21	7.13	–	–	–	–
O=C1Nc2ccc(Cl)cc2C12CCN(CCOc1ccc(S(=O)(=O)C3(C(=O)N4CCC4)CC3)cc1)CC2 [Compound 228, 1′-[2-(4-{[1-(azetidine-1-carbonyl)cyclopropyl]sulfonyl}phenoxy)ethyl]-5-chloro-1,2-dihydrospiro[indole-3,4′-piperidin]-2-one]	7.06	7.00	6.71	6.44	–	–	–	–
CC(O)c1ncc(OCCN2CCC3(CC2)C(=O)Nc2ccc(C(F)F)cc23)cc1C(F)(F)F (single isomer, unassigned) [Compound 288, 5-(difluoromethyl)-1′-[2-({6-[(1R) or (1S)-1-hydroxyethyl]-5-(trifluoromethyl)pyridin-3-yl}oxy)ethyl]-1,2-dihydrospiro[indole-3,4′-piperidin]-2-one]	–	–	–	–	8.01	7.47	7.44	7.58
CS(=O)(=O)C1(c2ncc(OCCN3CCC4(CC3)C(=O)Nc3ccc(C#N)cc34)cc2F)CC1 [Compound 283, 1′-(2-{[5-fluoro-6-(1-methanesulfonylcyclopropyl)pyridin-3-yl]oxy}ethyl)-2-oxo-1,2-dihydrospiro[indole-3,4′-piperidine]-5-carbonitrile]	7.15	7.00	6.67	6.63	–	–	–	–
O=C1CCc2cc(OCCN3CCC4(CC3)C(=O)Nc3ccc(Cl)cc34)ccc2N1[C@H]1C[C@H](O)C1 [Compound 224, 5-chloro-1′-[2-({2-oxo-1-[(trans)-3-hydroxycyclobutyl]-1,2,3,4-tetrahydroquinolin-6-yl}oxy)ethyl]-1,2-dihydrospiro[indole-3,4′-piperidin]-2-one]	7.49	7.41	7.18	7.03	–	–	–	–
